Patent US5045566A, “Novel imidate insecticides” (ICI Americas Inc., priority 1989, dated 1991)

What was measured:
Format in all cases: in vivo
[1] = system: Black Bean Aphid [Aphis fabae (Scop.)]; assay: Black bean aphid spray test on nasturtium (BBA), 48 hours; conditions: percent of test compound in sprayed solution
Procedure: (§1) The compounds in Tables 1 and 2 above were tested for insecticidal activity using the following testing procedures. LC50 values, based on the results of these tests and calculated according to dosage-mortality curves, are expressed in Table 3.
Black Bean Aphid [Aphis fabae (Scop.)]:
Nasturtium plants (Tropaeolum sp.) approximately 5 cm tall, were transplanted into sandy loam soil in small cups and infested with 25-50 black bean aphids of mixed ages. Twenty-four hours later they were sprayed to the point of runoff with 50-50 acetone-water solutions of the test compounds. Treated plants were held in the greenhouse and mortality was recorded after 48 hours. Test concentrations ranged from 0.05% downward. The LC-50 value is expressed below in Table 3 under the heading "BBA" in terms of percent of the test compound in the sprayed solution.

[2] = system: Tobacco Budworm [Heliothis virescens (Fabricius)] eggs; assay: Tobacco budworm eggs (TBW-E); conditions: percent in solution; 2-day old eggs
Procedure: as §1
Tobacco Budworm [Heliothis virescens (Fabricius)]:
(b). Eggs: Paper towel patches of 2-day old eggs of the tobacco budworm were dipped in acetone solutions of the test compound and placed in petri dishes containing a portion of larval rearing medium. Treated eggs were maintained at 78° F. and mortality was recorded after all control eggs had hatched and the young larvae were feeding on the media. Test concentrations ranged from 0.1% downward. The LC-50 value is expressed below in Table 3 under the heading "TBW-E" in terms of percent of the test compound in the solution.

[3] = system: Housefly [Musca domestica]; assay: Housefly contact mortality in dishes (HF), 48 hours; conditions: μg of test compound per 25 female flies
Procedure: as §1
Housefly [Musca domestica]:
Test compounds were diluted in acetone and aliquots pipetted onto the bottom of aluminum dishes. To ensure even spreading of the chemical on the bottom of the dishes, 1 ml of acetone containing 0.01% peanut oil was also added to each dish. After all solvents had evaporated, the dishes were placed in circular cardboard cages containing 25 female houseflies, 1-2 days old. The cages were covered on the bottom with cellophane and on the top with tulle netting, and each contained a sugar-water saturated cotton plug for maintenance of the flies. Mortality was recorded after 48 hours. Test levels ranged from 100 μg/25 female houseflies downward. The LC-50 value is expressed below in Table 3 under the heading "HF", in terms of μg of the test compound per 25 female flies.

[4] = system: Cabbage Looper [Trichoplusia ni (Hubner)]; assay: Cabbage looper leaf dip (CL), 3-5 days; conditions: percent in solution, second-instar larvae
Procedure: as §1
Cabbage Looper [Trichoplusia ni (Hubner)]:
Test compounds were diluted in a 50-50 acetone-water solution. Cotyledons of hyzini squash (Calabacita abobrinha), approximately 1×1.5 inches, were immersed in the test solutions for 2-3 seconds and placed on a wire screen to dry. The dried leaves were placed in petri dishes containing a moistened piece of filter paper and infested with 5 second-instar cabbage looper larvae. The dishes were placed in a high humidity chamber. Mortality of the larvae was recorded 3-5 days later. Test concentrations ranged from 0.1% downward. The LC-50 value is expressed below in Table 3 under the heading "CL" in terms of percent of the test compound in solution.

## COc1ccc(Oc2cccc(COC(=Nc3ccc(Cl)c(Cl)c3)C(C)C)c2)cc1 [Compound 223]
[1]
  LC50 BBA: 0.003%
[2]
  LC50 TBW E (eggs): > 0.1%
[3]
  LC50 HF: 43 µg
[4]
  LC50 CL: 0.008%

## CC(C)(C)C(=Nc1ccc(Cl)c([N+](=O)[O-])c1)OCc1cccc(Oc2ccccc2)c1 [Compound 105]
[1]
  LC50 BBA: 0.05%
[2]
  LC50 TBW E (eggs): > 0.1%
[3]
  LC50 HF: > 100 µg
[4]
  LC50 CL: 0.018%

## COc1cc(N=C(OCc2cccc(Oc3ccccc3)c2)C(C)C)cc(C(F)(F)F)c1 [Compound 76]
[1]
  LC50 BBA: 0.003%
[2]
  LC50 TBW E (eggs): 0.05%
[3]
  LC50 HF: 20 µg
[4]
  LC50 CL: 0.002%

## CC(C)C(=Nc1ccc(F)c(Cl)c1)OCc1cccc(Oc2ccncc2)c1 [Compound 470]
[1]
  LC50 BBA: > 0.05%
[2]
  LC50 TBW E (eggs): > 0.1%
[3]
  LC50 HF: 25 µg
[4]
  LC50 CL: 0.02%

## CC(C)C(=Nc1ccc(F)c(Cl)c1)OCc1ccc(Cl)c(Oc2ccc(F)cc2)c1 [Compound 448]
[1]
  LC50 BBA: > 0.05%
[2]
  LC50 TBW E (eggs): 0.03%
[3]
  LC50 HF: 16 µg
[4]
  LC50 CL: 0.003%

## CC(C)C(=Nc1cccc(Br)c1)OCc1cccc(Oc2ccc(F)cc2)c1 [Compound 229]
[1]
  LC50 BBA: 0.006%
[2]
  LC50 TBW E (eggs): > 0.1%
[3]
  LC50 HF: 20 µg
[4]
  LC50 CL: 0.0005%

## CC(C)C(=Nc1ccc(Br)c(Br)c1)OCc1cccc(Oc2ccccc2)c1 [Compound 252]
[1]
  LC50 BBA: 0.002%
[2]
  LC50 TBW E (eggs): 0.04%
[3]
  LC50 HF: 34 µg
[4]
  LC50 CL: 0.0035%

## CCOC(=O)c1ccc(N=C(OCc2cccc(Oc3ccccc3)c2)C(C)C)cc1Cl [Compound 104]
[1]
  LC50 BBA: 0.003%
[2]
  LC50 TBW E (eggs): > 0.1%
[3]
  LC50 HF: > 100 µg
[4]
  LC50 CL: 0.004%

## CCOC(=O)c1cccc(N=C(OCc2cccc(Oc3ccccc3)c2)C(C)(C)C)c1 [Compound 168]
[1]
  LC50 BBA: > 0.05%
[2]
  LC50 TBW E (eggs): > 0.1%
[3]
  LC50 HF: > 100 µg
[4]
  LC50 CL: 0.1%

## CC(C)C(=Nc1ccc(F)c(Cl)c1)OCc1cccc(Oc2ccc(I)cc2)c1 [Compound 447]
[1]
  LC50 BBA: > 0.05%
[2]
  LC50 TBW E (eggs): > 0.1%
[3]
  LC50 HF: 33 µg
[4]
  LC50 CL: 0.0009%

## COc1ccc(Oc2cccc(COC(=Nc3ccc(F)c(Cl)c3)C(C)C)c2)cc1 [Compound 221]
[1]
  LC50 BBA: 0.01%
[2]
  LC50 TBW E (eggs): > 0.1%
[3]
  LC50 HF: 62 µg
[4]
  LC50 CL: 0.0027%

## CC(C)C(=Nc1cccc(C(F)(F)F)c1)OC(C)c1cccc(Oc2ccccc2)n1 (stereo not shown) [Compound 499]
[1]
  LC50 BBA: > 0.05%
[2]
  LC50 TBW E (eggs): > 0.1%
[3]
  LC50 HF: 63 µg
[4]
  LC50 CL: 0.0024%

## Cc1cc(N=C(OCc2cccc(Oc3ccccc3)c2)C(C)C)ccc1Br [Compound 127]
[1]
  LC50 BBA: 0.001%
[2]
  LC50 TBW E (eggs): 0.04%
[3]
  LC50 HF: 58 µg
[4]
  LC50 CL: 0.01%

## Cc1ccc(C)c(N=C(OCc2cccc(Oc3ccccc3)c2)C(C)C)c1 [Compound 250]
[1]
  LC50 BBA: 0.0006%
[2]
  LC50 TBW E (eggs): 0.038%
[3]
  LC50 HF: 38 µg
[4]
  LC50 CL: 0.004%

## CC(C)C(=Nc1cc(Cl)c(Cl)cc1Cl)OCc1cccc(Oc2ccccc2)c1 [Compound 18]
[1]
  LC50 BBA: 0.003%
[2]
  LC50 TBW E (eggs): 0.09%
[3]
  LC50 HF: > 100 µg
[4]
  LC50 CL: 0.008%

## CC(C)C(=Nc1ccc2c(c1)CCO2)OCc1cccc(Oc2ccccc2)c1 [Compound 243]
[1]
  LC50 BBA: 0.01%
[2]
  LC50 TBW E (eggs): > 0.1%
[3]
  LC50 HF: 9 µg
[4]
  LC50 CL: 0.005%

## CC(C)C(=Nc1c(Cl)cc(Cl)cc1Cl)OCc1cccc(Oc2ccccc2)c1 [Compound 19]
[1]
  LC50 BBA: 0.05%
[2]
  LC50 TBW E (eggs): > 0.1%
[3]
  LC50 HF: > 100 µg
[4]
  LC50 CL: < 0.1%

## Cc1ccc(Cl)c(N=C(OCc2cccc(Oc3ccccc3)c2)C(C)C)c1 [Compound 93]
[1]
  LC50 BBA: 0.003%
[2]
  LC50 TBW E (eggs): > 0.1%
[3]
  LC50 HF: 64 µg
[4]
  LC50 CL: 0.005%

## Cc1ccc(N=C(OCc2cccc(Oc3ccccc3)c2)C(C)C)c(Cl)c1 [Compound 94]
[1]
  LC50 BBA: 0.001%
[2]
  LC50 TBW E (eggs): 0.075%
[3]
  LC50 HF: 44 µg
[4]
  LC50 CL: 0.0045%

## CC(C)(Cl)C(=Nc1ccc(F)c(Cl)c1)OCc1cccc(Oc2ccc(F)cc2)c1 [Compound 224]
[1]
  LC50 BBA: 0.05%
[2]
  LC50 TBW E (eggs): > 0.1%
[3]
  LC50 HF: > 100 µg
[4]
  LC50 CL: 0.001%

## CC(C)C(=Nc1cccc(Cl)c1)OCc1cccc(Oc2ccc(Br)cc2)c1 [Compound 260]
[1]
  LC50 BBA: 0.006%
[2]
  LC50 TBW E (eggs): > 0.1%
[3]
  LC50 HF: 22 µg
[4]
  LC50 CL: 0.00075%

## Cc1cc(N=C(OCc2cccc(Oc3ccc(F)cc3)c2)C(C)C)ccc1F [Compound 236]
[1]
  LC50 BBA: 0.003%
[2]
  LC50 TBW E (eggs): 0.06%
[3]
  LC50 HF: 7 µg
[4]
  LC50 CL: 0.0018%

## C=CCOc1cccc(COC(=Nc2cccc(C(F)(F)F)c2)C(C)C)c1 [Compound 480]
[1]
  LC50 BBA: > 0.05%
[2]
  LC50 TBW E (eggs): > 0.1%
[3]
  LC50 HF: > 100 µg
[4]
  LC50 CL: 0.01%

## COc1ccc(N=C(OCc2cccc(Oc3ccccc3)c2)C(C)C)c(C)c1 [Compound 149]
[1]
  LC50 BBA: 0.001%
[2]
  LC50 TBW E (eggs): 0.05%
[3]
  LC50 HF: 17 µg
[4]
  LC50 CL: 0.007%

## CSc1cccc(N=C(OCc2cccc(Oc3ccccc3)c2)C(C)C)c1 [Compound 166]
[1]
  LC50 BBA: 0.001%
[2]
  LC50 TBW E (eggs): > 0.1%
[3]
  LC50 HF: 22 µg
[4]
  LC50 CL: 0.009%

## CCC(=Nc1ccc(CC)cc1)OCc1cccc(Oc2ccccc2)c1 [Compound 157]
[1]
  LC50 BBA: 0.002%
[2]
  LC50 TBW E (eggs): > 0.1%
[3]
  LC50 HF: 25 µg
[4]
  LC50 CL: 0.009%

## COc1ccc(N=C(OCc2cccc(Oc3ccccc3)c2)C(C)C)cc1OC [Compound 169]
[1]
  LC50 BBA: 0.003%
[2]
  LC50 TBW E (eggs): > 0.1%
[3]
  LC50 HF: 10 µg
[4]
  LC50 CL: 0.009%

## CCSc1ccc(N=C(OCc2cccc(Oc3ccccc3)c2)C(C)C)cc1Cl [Compound 103]
[1]
  LC50 BBA: 0.001%
[2]
  LC50 TBW E (eggs): > 0.1%
[3]
  LC50 HF: > 100 µg
[4]
  LC50 CL: 0.015%

## Cc1cc(N=C(OCc2cccc(Oc3ccccc3)c2)C(C)C)ccc1F [Compound 87]
[1]
  LC50 BBA: 0.001%
[2]
  LC50 TBW E (eggs): 0.03%
[3]
  LC50 HF: 5 µg
[4]
  LC50 CL: 0.004%

## CC(C)C(=Nc1ccc(Cl)c(Cl)c1)OCc1cccc(Oc2ccc(F)c(F)c2)c1 [Compound 218]
[1]
  LC50 BBA: 0.003%
[2]
  LC50 TBW E (eggs): 0.025%
[3]
  LC50 HF: 25 µg
[4]
  LC50 CL: 0.0003%

## CC(C)C(=Nc1ccc(F)c(F)c1)OCc1cccc(Oc2ccc(C#N)cc2)c1 [Compound 212]
[1]
  LC50 BBA: 0.05%
[2]
  LC50 TBW E (eggs): 0.045%
[3]
  LC50 HF: 20 µg
[4]
  LC50 CL: 0.0005%

## Cc1ccc(N=C(OCc2cccc(Oc3ccccc3)c2)C(C)(C)C)cc1C [Compound 167]
[1]
  LC50 BBA: > 0.05%
[2]
  LC50 TBW E (eggs): > 0.1%
[3]
  LC50 HF: > 100 µg
[4]
  LC50 CL: 0.02%

## CC(C)(C)C(=Nc1cccc(Br)c1)OCc1cccc(Oc2ccccc2)c1 [Compound 134]
[1]
  LC50 BBA: > 0.05%
[2]
  LC50 TBW E (eggs): > 0.1%
[3]
  LC50 HF: > 100 µg
[4]
  LC50 CL: 0.015%

## Cc1ccc(N=C(OCc2cccc(Oc3ccccc3)c2)C(C)(C)C)cc1Cl [Compound 107]
[1]
  LC50 BBA: 0.01%
[2]
  LC50 TBW E (eggs): > 0.1%
[3]
  LC50 HF: > 100 µg
[4]
  LC50 CL: 0.007%

## CC(C)C(=Nc1ccc(Cl)cc1)OCc1cccc(Oc2ccc(Br)cc2)c1 [Compound 237]
[1]
  LC50 BBA: 0.01%
[2]
  LC50 TBW E (eggs): 0.075%
[3]
  LC50 HF: 50 µg
[4]
  LC50 CL: 0.0006%

## CC(C)C(=Nc1ccc(F)c(Cl)c1)OCc1cc(F)cc(Oc2ccc(F)cc2)c1 [Compound 327]
[1]
  LC50 BBA: > 0.05%
[2]
  LC50 TBW E (eggs): > 0.1%
[3]
  LC50 HF: > 100 µg
[4]
  LC50 CL: 0.005%

## CC(C)C(=Nc1ccc(C#N)cc1)OCc1cccc(Oc2cccc(Cl)c2)c1 [Compound 208]
[1]
  LC50 BBA: 0.05%
[2]
  LC50 TBW E (eggs): > 0.1%
[3]
  LC50 HF: 27 µg
[4]
  LC50 CL: 0.0035%
